The term IC50 denotes the concentration at which inhibition is half-maximal.

We go through 15 molecules from patent US10821115B2, “Compounds that inhibit Mcl-1 protein” (priority 2017, dated 2020).

Test [1] concerns human multiple myeloma cell line, OPM-2. Nature of the test: Cell viability assay (OPM-2 10 FBS), CellTiter-Glo. It counts as cell-based. The method, boiled down: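 Cells were seeded at 3000 cells/well in RPMI 1640 with 10% FBS and exposed to serially diluted compounds for 16 h at 37 °C, 5% CO2.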
Background: ATP-based viability assays read luminescence as a measure of living cells.

Test [2] has as its target recombinant human Mcl-1 (residues 171-327) / Bim interaction (Homo sapiens (Human), UniProt Q07820). Nature of the test: biochemical. Type of test: binding. To be noted: read-out: Mcl-1 HTRF IC50. In general terms: Time-resolved FRET reads energy transfer from a long-lived donor to a nearby acceptor.
Where [3] appears, read: Homo sapiens, OPM-2, 16 h, read-out: OPM-2 10% FBS IC50 IP, OPM-2 cells, 10% FBS, 16 h incubation.
[4] abbreviates: 0.1 nM Mcl-1(171-327), 0.05 nM biotin-Bim (51-76).
[5] abbreviates: Homo sapiens, OPM-2, 16 h, read-out: OPM-2 10% FBS IC50 IP, OPM-2 cells, 10% FBS, 16 h, CellTiter-Glo.
Where [6] appears, read: TR-FRET, Mcl-1(171-327) / biotin-Bim (51-76).
[7] abbreviates: read-out: OPM-2 10% FBS IC50 IP, OPM-2 cells, 10% FBS, 16 h, CellTiter-Glo.
Setting [8] is: read-out: OPM-2 10% FBS IC50 IP, OPM-2 cells, 10% FBS, 16 h incubation.

Read-outs that look alike come from different tables or passages of the source.

Chain of recombinant human Mcl-1 (residues 171-327) / Bim interaction (Q07820 171-327): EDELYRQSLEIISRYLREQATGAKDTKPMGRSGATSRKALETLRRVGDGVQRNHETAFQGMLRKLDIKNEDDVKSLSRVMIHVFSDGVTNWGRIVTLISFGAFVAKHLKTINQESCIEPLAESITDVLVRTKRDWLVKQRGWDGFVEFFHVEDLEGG

In the case of `COCCN1CCN(C[C@]2(OC)/C=C/C[C@H](C)[C@@H](C)S(=O)(=O)NC(=O)c3ccc4c(c3)N(C[C@@H]3CC[C@H]32)C[C@@]2(CCCc3cc(Cl)ccc32)CO4)CC1(C)C` [Example 334, (1S,3′R,6′R,7′S,8′E,11′S,12′R)-6-chloro-7′-methoxy-7′-((4-(2-methoxyethyl)-3,3-dimethyl-1-piperazinyl)methyl)-11′,12′-dimethyl-3,4-dihydro-2H,15′H-spiro[naphthalene-1,22′-[20]oxa[13]thia[1,14]diazatetracyclo [14.7.2.0~3,6~.0~19,24~]pentacosa[8,16,18,24]tetraen]-15′-one 13′,13′-dioxide], the half-inhibitory concentration (IC50) in test [1] (setting [3]) was determined as 159 nM; in test [2] (setting [4]), 0.186 nM.

With `CO[C@]1(c2ncccn2)CCC[C@H](C)[C@@H](C)S(=O)(=O)NC(=O)c2ccc3c(c2)N(C[C@@H]2CC[C@H]21)C[C@@]1(CCCc2cc(Cl)ccc21)CO3` [Example 100276, (1S,3′R,6′R,7′R,11′S,12′R)-6-chloro-7′-methoxy-11′,12′-dimethyl-7′-(2-pyrimidinyl)-3,4-dihydro-2H,15′H-spiro[naphthalene-1,22′-[20]oxa[13]thia[1,14]diazatetracyclo [14.7.2.0~3,6~.0~19,24~]pentacosa[16,18,24]trien]-15′-one 13′,13′-dioxide], the IC50 in test [1] (setting [5]) is 1530 nM; in test [2] (setting [6]) it was 0.326 nM.

As for `C[C@@H]1[C@@H](C)CCC[C@@](O)([C@@H]2CCN(C)C2=O)[C@@H]2CC[C@H]2CN2C[C@@]3(CCCc4cc(Cl)ccc43)COc3ccc(cc32)C(=O)NS1(=O)=O` [Example 100204, (1S,3′R,6′R,7′S,11′S,12′R)-6-chloro-7′-hydroxy-11′,12′-dimethyl-7′-((3S)-1-methyl-2-oxo-3-pyrrolidinyl)-3,4-dihydro-2H,15′H-spiro[naphthalene-1,22′-[20]oxa[13]thia[1,14]diazatetracyclo [14.7.2.0~3,6~.0~19,24~]pentacosa[16,18,24]trien]-15′-one 13′,13′-dioxide], the 50% inhibitory concentration (IC50) in test [1] (setting [7]) is 5270 nM; in test [2] (setting [6]), 1.66 nM.

In the case of `CC[C@]1(OC)/C=C/C[C@H](C)[C@@H](C)S(=O)(=O)NC(=O)c2ccc3c(c2)N(C[C@@H]2CC[C@H]21)C[C@@]1(CCCc2cc(Cl)ccc21)CO3` [Example 100234, (1S,3′R,6′R,7′S,8′E,11′S,12′R)-6-chloro-7′-ethyl-7′-methoxy-11′,12′-dimethyl-3,4-dihydro-2H,15′H-spiro[naphthalene-1,22′-[20]oxa[13]thia[1,14]diazatetracyclo [14.7.2.0~3,6~.0~19,24~]pentacosa[8,16,18,24]tetraen]-15′-one 13′,13′-dioxide], the IC50 came to 449 nM in test [1] (setting [5]) and 0.237 nM in test [2] (setting [6]).

Turning to `CO[C@@]1(CN2CC(C)(N(C)C)C2)/C=C/[C@H](C)[C@H](C)CS(=O)(=O)NC(=O)c2ccc3c(c2)N(C[C@@H]2CC[C@H]21)C[C@@]1(CCCc2cc(Cl)ccc21)CO3` [Example 162, (1S,3′R,6′R,7′S,8′E,10′S,11′S)-6-chloro-7′-((3-(dimethylamino)-3-methyl-1-azetidinyl)methyl)-7′-methoxy-10′,11′-dimethyl-3,4-dihydro-2H,15′H-spiro[naphthalene-1,22′-[20]oxa[13]thia[1,14]diazatetracyclo [14.7.2.0~3,6~.0~19,24~]pentacosa[8,16,18,24]tetraen]-15′-one 13′,13′-dioxide], the IC50 stood at 55 nM in test [1] (setting [3]) and 0.072 nM in test [2] (setting [4]).

As to `CO[C@@]1(CN2CCN3CCC(F)(F)C[C@H]3C2)/C=C/C[C@H](C)[C@@H](C)S(=O)(=O)NC(=O)c2ccc3c(c2)N(C[C@@H]2CC[C@H]21)C[C@@]1(CCCc2cc(Cl)ccc21)CO3` (single isomer, unassigned) [Example 289], the half-inhibitory concentration (IC50) amounted to 131 nM in test [1] (setting [8]) and 0.214 nM in test [2] (setting [4]).

Consider `CO[C@]1(CN2CCc3ncncc3C2)/C=C/C[C@H](C)[C@@H](C)S(=O)(=O)NC(=O)c2ccc3c(c2)N(C[C@@H]2CC[C@H]21)C[C@@]1(CCCc2cc(Cl)ccc21)CO3` [Example 222, (1S,3′R,6′R,7′R,8′E,11′S,12′R)-6-chloro-7′-(7,8-dihydropyrido[4,3-d]pyrimidin-6(5H)-ylmethyl)-7′-methoxy-11′,12′-dimethyl-3,4-dihydro-2H,15′H-spiro[naphthalene-1,22′-[20]oxa[13]thia[1,14]diazatetracyclo [14.7.2.0~3,6~.0~19,24~]pentacosa[8,16,18,24]tetraen]-15′-one 13′,13′-dioxide], for which the IC50 in test [1] (setting [3]) was 118 nM; in test [2] (setting [4]), 0.08 nM.

On to `CO[C@@]1(Cc2nnc(C)o2)/C=C/C[C@H](C)[C@@H](C)S(=O)(=O)NC(=O)c2ccc3c(c2)N(C[C@@H]2CC[C@H]21)C[C@@]1(CCCc2cc(Cl)ccc21)CO3` [Example 100512, (1S,3′R,6′R,7′S,8′E,11′S,12′R)-6-chloro-7′-methoxy-11′,12′-dimethyl-7′-((5-methyl-1,3,4-oxadiazol-2-yl)methyl)-3,4-dihydro-2H,15′H-spiro[naphthalene-1,22′-[20]oxa[13]thia[1,14]diazatetracyclo [14.7.2.0~3,6~.0~19,24~]pentacosa[8,16,18,24]tetraen]-15′-one 13′,13′-dioxide], for which the IC50 in test [1] (setting [5]) was 1490 nM; in test [2] (setting [6]) it was 0.415 nM.

For `C[C@@H]1[C@@H](C)CCC[C@@](O)(c2nccn2C)[C@@H]2CC[C@H]2CN2C[C@@]3(CCCc4cc(Cl)ccc43)COc3ccc(cc32)C(=O)NS1(=O)=O` [Example 100226, (1S,3′R,6′R,7′S,11′S,12′R)-6-chloro-7′-hydroxy-11′,12′-dimethyl-7′-(1-methyl-1H-imidazol-2-yl)-3,4-dihydro-2H,15′H-spiro[naphthalene-1,22′-[20]oxa[13]thia[1,14]diazatetracyclo [14.7.2.0~3,6~.0~19,24~]pentacosa[16,18,24]trien]-15′-one 13′,13′-dioxide], the concentration for half-maximal inhibition (IC50) in test [1] (setting [5]) came out at 849 nM; in test [2] (setting [6]), 1.4 nM.

Consider `CO[C@]1(CN2CCN3CCC(F)(F)C[C@@H]3C2)/C=C/C[C@H](C)[C@@H](C)S(=O)(=O)NC(=O)c2ccc3c(c2)N(C[C@@H]2CC[C@H]21)C[C@@]1(CCCc2cc(Cl)ccc21)CO3` [Example 292], for which the half-maximal inhibitory concentration (IC50) in test [1] (setting [8]) amounted to 399 nM; in test [2] (setting [4]), 0.356 nM.

In the case of `CO[C@@]1(CC(=O)N2CCN3CCOC[C@H]3C2)/C=C/C[C@H](C)[C@@H](C)S(=O)(=O)NC(=O)c2ccc3c(c2)N(C[C@@H]2CC[C@H]21)C[C@@]1(CCCc2cc(Cl)ccc21)CO3` [Example 100411, (1S,3′R,6′R,7′S,8′E,11′S,12′R)-6-chloro-7′-(2-((9aR)-hexahydropyrazino[2,1-c][1,4]oxazin-8(1H)-yl)-2-oxoethyl)-7′-methoxy-11′,12′-dimethyl-3,4-dihydro-2H,15′H-spiro[naphthalene-1,22′-[20]oxa[13]thia[1,14]diazatetracyclo [14.7.2.0~3,6~.0~19,24~]pentacosa[8,16,18,24]tetraen]-15′-one 13′,13′-dioxide], the half-maximal inhibitory concentration (IC50) amounted to 2100 nM in test [1] (setting [5]) and 0.584 nM in test [2] (setting [6]).

For the molecule `C[C@@H]1[C@@H](C)C/C=C/[C@@](O)(c2ccc(F)cn2)[C@@H]2CC[C@H]2CN2C[C@@]3(CCCc4cc(Cl)ccc43)COc3ccc(cc32)C(=O)NS1(=O)=O` (single isomer, unassigned) [Example 100402], the IC50 in test [1] (setting [5]) was found to be 133 nM; in test [2] (setting [6]) it was 0.098 nM.

Regarding `CO[C@]1(CN2CCN3CCCC[C@@H]3C2)/C=C/C[C@H](C)[C@@H](CC=O)S(=O)(=O)NC(=O)c2ccc3c(c2)N(C[C@@H]2CC[C@H]21)C[C@@]1(CCCc2cc(Cl)ccc21)CO3` [Example 360, ((1S,3′R,6′R,7′R,8′E,11′S,12′R)-6-Chloro-7′-methoxy-11′-methyl-7′-((9aR)-octahydro-2H-pyrido[1,2-a]pyrazin-2-ylmethyl)-13′,13′-dioxido-15′-oxo-3,4-dihydro-2H-spiro[naphthalene-1,22′-[20]oxa[13]thia[1,14]diazatetracyclo[14.7.2.0-3,6˜.0˜19,24˜]pentacosa[8,16,18,24]tetraen]-12′-yl)acetaldehyde], the IC50 is 2410 nM in test [1] (setting [3]) and 1.07 nM in test [2] (setting [4]).

With `CO[C@]1(CN2CC(C)(C#N)C2)/C=C/C[C@H](C)[C@@H](C)S(=O)(=O)NC(=O)c2ccc3c(c2)N(C[C@@H]2CC[C@H]21)C[C@@]1(CCCc2cc(Cl)ccc21)CO3` [Example 71, 1-(((1S,3′R,6′R,7′R,8′E,11′S, 12′R)-6-chloro-7′-methoxy-11′,12′-dimethyl-13′,13′-dioxido-15′-oxo-3,4-dihydro-2H-spiro[naphthalene-1,22′-[20]oxa[13]thia[1,14]diazatetracyclo [14.7.2.0~3,6~.0~19,24~]pentacosa[8,16,18,24]tetraen]-7′-yl)methyl)-3-methyl-3-azetidinecarbonitrile], the IC50 in test [1] (setting [3]) is 1140 nM; in test [2] (setting [4]), 0.371 nM.

Turning to `C[C@@H]1[C@@H](C)C/C=C/[C@@](O)(CC(=O)N(C)C)[C@@H]2CC[C@H]2CN2C[C@@]3(CCCc4cc(Cl)ccc43)COc3ccc(cc32)C(=O)NS1(=O)=O` [Example 100077, 2-((1S,3′R,6′R,7′S,8′E,11′S,12′R)-6-chloro-7′-hydroxy-11′,12′-dimethyl-13′,13′-dioxido-15′-oxo-3,4-dihydro-2H-spiro[naphthalene-1,22′-[20]oxa[13]thia[1,14]diazatetracyclo [14.7.2.0~3,6~.0~19,24~]pentacosa[8,16,18,24]tetraen]-7′-yl)-N,N-dimethylacetamide], the concentration for half-maximal inhibition (IC50) in test [1] (setting [7]) was found to be 52 nM; in test [2] (setting [6]) it was 0.19 nM.
